Calls of active or inactive are those of the source. Rule as the data show it, for most assays here: actives have a measured IC50 and inactives only a lower limit.
Columns and labels:
[1] = biological target: T1, Histone-lysine N-methyltransferase NSD2 (Homo sapiens, UniProt O96028); assay type: biochemical
T1 sequence (O96028 whole entry): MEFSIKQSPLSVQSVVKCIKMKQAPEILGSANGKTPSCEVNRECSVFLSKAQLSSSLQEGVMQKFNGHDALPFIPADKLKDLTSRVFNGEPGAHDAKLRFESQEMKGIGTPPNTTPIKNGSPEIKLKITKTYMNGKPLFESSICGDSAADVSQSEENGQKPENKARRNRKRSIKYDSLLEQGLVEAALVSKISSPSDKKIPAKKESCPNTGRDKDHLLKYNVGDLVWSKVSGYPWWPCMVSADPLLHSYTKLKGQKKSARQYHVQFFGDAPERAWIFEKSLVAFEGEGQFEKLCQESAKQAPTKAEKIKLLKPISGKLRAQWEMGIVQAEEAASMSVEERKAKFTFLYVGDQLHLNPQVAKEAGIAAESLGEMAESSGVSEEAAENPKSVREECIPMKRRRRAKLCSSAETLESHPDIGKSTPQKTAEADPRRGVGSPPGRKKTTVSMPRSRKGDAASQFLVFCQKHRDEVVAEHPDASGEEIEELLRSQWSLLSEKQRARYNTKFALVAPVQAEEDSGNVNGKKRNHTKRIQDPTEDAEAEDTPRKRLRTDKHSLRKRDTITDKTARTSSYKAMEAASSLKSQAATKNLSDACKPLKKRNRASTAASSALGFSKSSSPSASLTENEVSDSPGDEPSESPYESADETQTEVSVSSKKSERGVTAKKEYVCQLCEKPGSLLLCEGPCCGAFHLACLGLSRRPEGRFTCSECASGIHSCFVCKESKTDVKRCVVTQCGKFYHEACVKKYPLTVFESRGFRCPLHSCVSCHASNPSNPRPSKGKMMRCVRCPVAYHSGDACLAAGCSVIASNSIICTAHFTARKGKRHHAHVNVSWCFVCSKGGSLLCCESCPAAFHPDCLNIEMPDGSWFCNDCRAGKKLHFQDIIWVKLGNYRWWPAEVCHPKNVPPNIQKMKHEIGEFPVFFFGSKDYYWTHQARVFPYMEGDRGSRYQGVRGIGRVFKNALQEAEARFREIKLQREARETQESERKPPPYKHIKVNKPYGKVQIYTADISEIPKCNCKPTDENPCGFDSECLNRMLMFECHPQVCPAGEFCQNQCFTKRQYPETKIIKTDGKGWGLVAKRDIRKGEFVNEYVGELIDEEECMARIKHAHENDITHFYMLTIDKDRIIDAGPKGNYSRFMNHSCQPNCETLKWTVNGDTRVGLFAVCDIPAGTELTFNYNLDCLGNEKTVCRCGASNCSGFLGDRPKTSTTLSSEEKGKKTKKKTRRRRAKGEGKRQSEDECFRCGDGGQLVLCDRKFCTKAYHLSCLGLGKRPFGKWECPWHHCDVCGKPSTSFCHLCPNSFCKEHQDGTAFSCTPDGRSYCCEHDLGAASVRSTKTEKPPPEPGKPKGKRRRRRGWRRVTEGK

Caspase-3 = biological target: T2, Caspase-3 (Homo sapiens, UniProt P42574); assay type: functional;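 also: Dose-response selectivity test against caspase-3 for candidate inhibitors of sentrin-specific proteases (SENPs)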
T2 sequence (P42574 whole entry): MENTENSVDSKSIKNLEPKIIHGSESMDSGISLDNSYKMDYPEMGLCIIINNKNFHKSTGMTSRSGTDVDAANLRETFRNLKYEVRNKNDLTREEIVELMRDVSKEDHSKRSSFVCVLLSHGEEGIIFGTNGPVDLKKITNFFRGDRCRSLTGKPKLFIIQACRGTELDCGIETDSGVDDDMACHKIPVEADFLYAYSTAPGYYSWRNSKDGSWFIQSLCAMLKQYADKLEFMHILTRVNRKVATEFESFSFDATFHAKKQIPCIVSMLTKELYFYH

[2] = biological target: T3, Sentrin-specific protease 8 (Homo sapiens, UniProt Q96LD8); assay type: functional;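 also: luminescence read-out of SENP8 inhibition, dose-response confirmation following an ultra-high-throughput screen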
T3 sequence (Q96LD8 whole entry): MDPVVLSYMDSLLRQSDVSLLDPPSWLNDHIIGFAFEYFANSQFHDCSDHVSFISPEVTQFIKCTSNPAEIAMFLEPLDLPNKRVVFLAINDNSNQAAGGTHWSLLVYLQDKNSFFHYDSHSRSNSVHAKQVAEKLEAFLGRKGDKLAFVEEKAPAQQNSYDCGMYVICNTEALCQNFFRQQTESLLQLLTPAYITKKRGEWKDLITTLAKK

[3] = biological target: T4, Sentrin-specific protease 7 (Homo sapiens, UniProt Q9BQF6); assay type: functional;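 also: Luminescence-based dose-response confirmation of ultra-high-throughput screening hits, measuring inhibition of SENP7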
T4 sequence (Q9BQF6 whole entry): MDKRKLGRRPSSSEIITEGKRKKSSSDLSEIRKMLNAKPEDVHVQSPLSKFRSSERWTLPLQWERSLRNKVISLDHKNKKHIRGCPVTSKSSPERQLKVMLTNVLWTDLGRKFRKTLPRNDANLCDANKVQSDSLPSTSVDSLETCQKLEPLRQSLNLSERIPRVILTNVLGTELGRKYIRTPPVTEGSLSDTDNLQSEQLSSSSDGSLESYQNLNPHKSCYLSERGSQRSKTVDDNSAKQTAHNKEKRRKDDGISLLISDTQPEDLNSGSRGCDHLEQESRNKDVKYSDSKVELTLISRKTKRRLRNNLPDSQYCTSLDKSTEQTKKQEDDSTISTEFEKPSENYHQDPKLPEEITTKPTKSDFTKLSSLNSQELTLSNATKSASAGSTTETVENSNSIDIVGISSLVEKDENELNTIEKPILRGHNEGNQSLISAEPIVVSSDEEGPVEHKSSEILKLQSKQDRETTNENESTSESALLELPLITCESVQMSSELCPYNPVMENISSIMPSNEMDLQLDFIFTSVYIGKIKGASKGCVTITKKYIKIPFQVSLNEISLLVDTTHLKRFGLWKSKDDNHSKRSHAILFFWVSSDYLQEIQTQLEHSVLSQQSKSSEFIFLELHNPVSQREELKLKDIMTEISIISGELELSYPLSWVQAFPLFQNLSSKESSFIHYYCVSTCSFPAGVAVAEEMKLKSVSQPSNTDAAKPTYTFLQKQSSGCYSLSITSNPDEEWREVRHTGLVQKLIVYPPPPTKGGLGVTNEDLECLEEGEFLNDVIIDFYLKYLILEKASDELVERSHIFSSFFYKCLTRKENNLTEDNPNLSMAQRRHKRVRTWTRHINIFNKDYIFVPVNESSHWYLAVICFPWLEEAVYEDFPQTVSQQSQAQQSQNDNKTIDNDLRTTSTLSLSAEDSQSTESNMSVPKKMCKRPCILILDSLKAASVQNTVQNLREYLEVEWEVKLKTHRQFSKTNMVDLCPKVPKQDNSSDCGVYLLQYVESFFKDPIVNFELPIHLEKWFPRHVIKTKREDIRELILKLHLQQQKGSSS

Structure (SMILES)	AC50 [1]	IC50 (Caspase-3)	IC50 [2]	IC50 [3]
COC1=C(c2ccccc2)C(=O)c2ccccc2C1=O	> 20 µM (inactive)	–	–	–
COc1cc2c(cc1OC)-c1c(OC)c(OC)cc3c1[C@H](C2)N(C)CC3	–	< 1.55 µM (active)	5.13 µM (active)	7.64 µM (active)
O=C1C(Cl)=C(N2CCC(C(=O)O)CC2)C(=O)c2ccccc21	1.46 µM (active)	15.6 µM (active)	20.2 µM (active)	29.1 µM (active)
